# Patent US20110300129A1, “SYSTEMS AND METHODS FOR ENHANCING VACCINE EFFICACY” (UNIVERSITY OF ROCHESTER, priority 2008, published 2011)
# Columns and labels:
# purified human B cells = experiment: B cell proliferation, CFSE cell division by flow cytometry; type: cell-based; settings: CpG-activated B cells, 5 days; for cell division compared to vehicle control: Rosiglitazone 0.5 μM, 15d-PGJ2 0.2 μM
# Protocol: Proliferation: For cell division, a CellTrace™ CFSE Cell Proliferation Kit (Invitrogen, Carlsbad, Calif.) was used according to the manufacturer's protocol. Briefly, cells were labeled with 0.5 μM CFSE (carboxyfluorescein diacetate succinimidyl ester) for 15 minutes at 37° C., followed by two washes with 1×PBS, and then resuspended in RPMI culture media containing 10% FBS. Cells were then plated at a density of 1×10^5 cells/well in a 96-round bottom plate. Five days later, cells were acquired using a BD Biosciences FACS Calibur flow cytometer and analyzed using FlowJo software (Tree Star, Inc. Ashland, Oreg.).
# Five days after activation, cells were analyzed by flow cytometry. […] FIG. 2B illustrates the percent of cell division for three different B cell donors.
# [1] = system: purified human B lymphocytes; experiment: Antibody production, IgM and IgG ELISA of B cell supernatants; type: cell-based
# Protocol: Antibody Production: Purified human B lymphocytes (5×10^5 cells/ml) were cultured in 96-well round-bottom microtiter plates. […] Pilot experiments were performed to optimize the doses of PPARγ and RXR ligands. […] Supernatants were harvested and the concentrations of IgM and IgG were analyzed using human-specific ELISAs (Bethyl Laboratories).
# peripheral blood B cells [2] = experiment: Plasma cell differentiation, CD38/CD27 surface labeling by flow cytometry; type: cell-based, human; settings: for percentage of CD38-expressing naive B cells (CD38highCD27low) / percentage of CD38highCD27high B cells (plasma cells): 9-cis-RA 100 nM; for percentage of CD38highCD27high B cells (plasma cells): Rosiglitazone 0.5 μM, 15d-PGJ2 0.2 μM
# Protocol: Intracellular and Surface Labeling: B cells were incubated with mouse anti-human CD19-APC (BD Biosciences), anti-human CD38-PE (BD Biosciences) and/or anti-human CD27-APC (BD Biosciences) in cold PBS with sodium azide (0.02%) and BSA (0.3%) for 20 min at 20° C. COX-2 intracellular staining was performed as described previously (Padilla et al., “Human B Lymphocytes and B Lymphomas Express PPAR-γ and Are Killed by PPAR-γ Agonists,” Clin Immunol 103:22-33 (2002), which is hereby incorporated by reference in its entirety). All samples were acquired on a BD Biosciences FACS Calibur flow cytometer and analyzed using FlowJo software (Tree Star, Inc. Ashland, Oreg.).
# Peripheral-blood B lymphocytes include both naive and memory B cell populations. These two B cell subsets can be distinguished based on CD27 expression, which is a marker of memory B cells (Agematsu et al., “CD27: A Memory B-cell Marker,” Immunol Today 21:204-206 (2000), each of which is hereby incorporated by reference in its entirety).
# human B cells = experiment: B cell viability (7-AAD incorporation, cell size, 3H-thymidine incorporation); type: cell-based; settings: Rosiglitazone 0.5 μM, 15d-PGJ2 0.2 μM; pilot experiments
# PPARγ = biological target: T1, PPARγ (Homo sapiens, UniProt P37231); experiment: PPARγ gene reporter analysis (PPRE-luciferase) in transfected B cells; type: cell-based
# T1 construct: normal B cells were transfected with a PPARγ luciferase reporter construct; endogenous in cells
# T1 sequence (P37231 1-505): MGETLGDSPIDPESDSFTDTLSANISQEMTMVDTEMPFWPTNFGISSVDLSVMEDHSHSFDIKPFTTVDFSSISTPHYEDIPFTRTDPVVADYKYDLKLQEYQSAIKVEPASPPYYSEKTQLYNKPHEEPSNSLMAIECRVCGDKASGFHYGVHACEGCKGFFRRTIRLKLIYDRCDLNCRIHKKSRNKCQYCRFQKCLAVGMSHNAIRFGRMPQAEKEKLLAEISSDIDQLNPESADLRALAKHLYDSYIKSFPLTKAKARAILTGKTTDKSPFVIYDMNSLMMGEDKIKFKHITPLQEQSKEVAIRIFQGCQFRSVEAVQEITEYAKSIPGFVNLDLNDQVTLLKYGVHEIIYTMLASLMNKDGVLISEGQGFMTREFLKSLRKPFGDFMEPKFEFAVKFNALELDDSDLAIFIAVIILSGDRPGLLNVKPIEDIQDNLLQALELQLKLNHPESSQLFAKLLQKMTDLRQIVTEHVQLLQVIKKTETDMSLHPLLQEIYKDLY
# Protocol: Twenty-four hours after treatments, luciferase activity was assayed using the Promega Luciferase Assay System (Madison, Wis.). Relative light units (RLU) were determined with a Lumicount Microplate Luminometer (Packard Instrument Co., Meriden, Conn., USA). Relative light units (RLU) were normalized to transfection efficiency that was monitored by cotransfection of GFP expression vector.
# To test whether the PPARγ ligand concentrations used here activated PPARγ, normal B cells were transfected with a PPARγ luciferase reporter construct.
# [3] = system: Cox-2 expression in B cells; experiment: Cox-2 intracellular staining of CD19+ B cells, flow cytometry; type: cell-based, human; settings: for percentage of B cells which express Cox-2: CpG 1 μg/ml, Rosiglitazone 0.5 μM, 15d-PGJ2 0.2 μM, 3% untreated
# Protocol: Intracellular and Surface Labeling: B cells were incubated with mouse anti-human CD19-APC (BD Biosciences), anti-human CD38-PE (BD Biosciences) and/or anti-human CD27-APC (BD Biosciences) in cold PBS with sodium azide (0.02%) and BSA (0.3%) for 20 min at 20° C. […] All samples were acquired on a BD Biosciences FACS Calibur flow cytometer and analyzed using FlowJo software (Tree Star, Inc. Ashland, Oreg.).
# Therefore, the levels of Cox-2 expression were evaluated following PPARγ ligand treatment.
# [4] = system: BLIMP-1 expression in B cells; experiment: BLIMP-1 expression in B cells, Western blot densitometry; type: cell-based, human; settings: for BLIMP-1 induction over CpG-treated cells (densitometry): CpG 1 μg/ml plus ligand, 72 hrs
# Protocol: (§1) Western Blots: Whole cell extracts were collected using ELB buffer (50 mM HEPES (pH 7), 250 mM NaCl, 0.1% Nonidet P-40, 5 mM EDTA, 10 mM NaF, 0.1 mM Na3VO4, 50 μM ZnCl2, supplemented with 0.1 mM PMSF, 1 mM DTT, and a mixture of protease and phosphatase inhibitors) and total protein was quantified using bicinchoninic acid protein assay (BCA assay kit) (Pierce, Rockford, Ill.). Twenty-five micrograms of protein was electrophoresed on 8-16% Precise™ protein gels (Pierce, Rockford, Ill.) and transferred to polyvinylidene fluoride (PVDF) membrane (Millipore, Billerica, Mass.). The membranes were analyzed for immunoreactivity with the indicated primary antibody, washed and then incubated with an appropriate horseradish peroxidase-conjugated secondary antibody. The membranes were visualized by chemiluminescence using an ECL kit (Pierce, Rockford, Ill.).
# Lastly, BLIMP-1 expression was evaluated. BLIMP-1 is a transcription factor important in B cell differentiation (Shaffer et al., “Blimp-1 Orchestrates Plasma Cell Differentiation by Extinguishing the Mature B Cell Gene Expression Program,” Immunity 17:51-62 (2002), which is hereby incorporated by reference in its entirety). […] When B cells were treated with a combination of CpG and PPARγ ligands, there was a further increase in BLIMP-1 expression.
# peripheral blood B cells [5] = settings: Morikawa et al. 2005; cited from earlier work
# [6] = system: PPARγ expression in human B cells; experiment: PPARγ expression in activated B cells, Western blot densitometry; type: cell-based; settings: 48 hr; 2 μg/ml anti-IgM Ab, 1 μg/ml CpG; three donors; 'up to'
# Text: B Cell Isolation: Normal B lymphocytes were isolated from a unit of whole blood from healthy donors with ethical permission from the Research Subjects Review Board at the University of Rochester. The isolation of normal B lymphocytes has been previously described (Ryan, et al., “Activated Human B Lymphocytes Express Cyclooxygenase-2 and Cyclooxygenase Inhibitors Attenuate Antibody Production,” J Immunol 174:2619-2626 (2005), which is hereby incorporated by reference in its entirety). Briefly, buffy coats were obtained from whole blood and peripheral blood mononuclear cells (PBMCs) were obtained using Ficoll-Paque (Amersham Biosciences AB) gradient centrifugation. […] B lymphocyte purity was >98% CD19 positive (as determined by flow cytometry, data not shown). […]
# as §1, with “Twenty-five micrograms of protein was electrophoresed on 8-16% Precise™ protein gels (Pierce, Rockford, Ill.) and transferred to polyvinylidene fluoride (PVDF) membrane (Millipore, Billerica, Mass.).” left out, “The membranes were visualized by chemiluminescence using an ECL kit (Pierce, Rockford, Ill.).” left out
# [7] = system: PPARγ expression in human B cells; experiment: Intracellular PPARγ staining of B cells, flow cytometry; type: cell-based; settings: activated B cells
# Protocol: For intracellular staining for PPARγ, untreated or activated B lymphocytes were surface stained with 20 μl of APC anti-human CD19 mAb (BD Biosciences) for 30 minutes in the dark at room temperature (RT). Cells were then fix and permeabilized with BD Cytofix/Cytoperm Fixation/Permeabilization Kit following the manufacturer's instructions. A FITC-Conjugated anti-human PPARγ antibody was used at a 1/100 dilution. An equal amount of IgG1 FITC mAb was used as an isotype control.
# [8] = addition of SC-58125 10 μM, 6 days
compound,measurement,setting,value
"CC1=C(/C=C/C(C)=C\C=C\C(C)=C\C(=O)O)C(C)(C)CCC1 [9-cis-RA, 9-cis-retinoic acid]",percentage of dividing cells,"purified human B cells; ligand alone, 9-cis-RA 100 nM",increased the percentage of dividing cells
same,IgG production over vehicle control,"[1]; CpG-activated cells, 6 days",significantly induced
same,IgM production over vehicle control,"[1]; CpG-activated cells, 6 days",significantly induced
same,"CD38highCD27high cells, fold over vehicle","peripheral blood B cells [2]; CpG 1 μg/ml, 5 days",~1.7 fold
same,"CD38highCD27low cells, fold vs. CpG plus vehicle","peripheral blood B cells [2]; CpG 1 μg/ml, 5 days",~3.5 fold
same,percentage of CD38-expressing naive B cells (CD38highCD27low),"peripheral blood B cells [2]; CpG 1 μg/ml, 5 days",30.2±5.5%
same,percentage of CD38highCD27high B cells (plasma cells),"peripheral blood B cells [2]; CpG 1 μg/ml, 5 days",10.3±1.9%
"CCCCCC=CC=C1C(=O)C=C[C@@H]1CC=CCCCC(=O)O [15d-PGJ2, 15-deoxy-Δ^12,14 Prostaglandin J2]",cell division compared to vehicle control,purified human B cells,increased cell division
same,cell viability,human B cells,did not adversely affect cell viability
same,luciferase activity (PPRE reporter),"PPARγ; CpG-activated B cells, 24 h treatment, Rosiglitazone 0.5 μM, 15d-PGJ2 0.2 μM",increased luciferase activity
same,"CD38highCD27high cells, fold over vehicle","peripheral blood B cells [2]; CpG 1 μg/ml, 5 days",~2 fold
same,percentage of CD38highCD27high B cells (plasma cells),"peripheral blood B cells [2]; CpG 1 μg/ml, 5 days",12.5±1.4%
same,percentage of B cells which express Cox-2,[3],43%
same,BLIMP-1 induction over CpG-treated cells (densitometry),[4],~9 fold
"CC1=C(/C=C/C(C)=C/C=C/C(C)=C/C(=O)O)C(C)(C)CCC1 [ATRA, all-trans-retinoic acid]",CD38 expression,peripheral blood B cells [5],induces CD38 expression
same,antibody production,peripheral blood B cells [5],increases antibody production
O=C(Nc1ccccc1)c1cc([N+](=O)[O-])ccc1Cl [GW9662],effects of PPARγ ligands on IgG production,"[1]; with GW9662 500 nM, CpG, 6 days",abolished
same,PPARγ ligand-induced CD38 expression in memory B cells,"peripheral blood B cells [2]; with GW9662 500 nM, CpG",attenuated
same,expression of BLIMP-1 compared to CpG alone,[4]; CpG and GW9662 500 nM,decrease
same,increase in BLIMP-1 by Rosiglitazone and 15d-PGJ2,"[4]; CpG-activated B cells, with GW9662 500 nM",dramatically attenuated
"CN(CCOc1ccc(CC2SC(=O)NC2=O)cc1)c1ccccn1 (centres unmarked) [Rosiglitazone, 5-[4-[2-[N-methyl-N-(2-pyridyl)amino]ethoxy]benzyl]thiazolidine-2,4-dione]",cell division compared to vehicle control,purified human B cells,increased cell division
same,cell viability,human B cells,did not adversely affect cell viability
same,percentage of CD38highCD27high B cells (plasma cells),"peripheral blood B cells [2]; CpG 1 μg/ml, 5 days",10.7±1.6%
same,percentage of B cells which express Cox-2,[3],36%
same,BLIMP-1 induction over CpG-treated cells (densitometry),[4],~6 fold
CS(=O)(=O)c1ccc(-n2nc(C(F)(F)F)cc2-c2ccc(F)cc2)cc1 [SC-58125],IgG production of CpG-stimulated B cells,[1]; [8],significantly reduced
same,IgM production of CpG-stimulated B cells,[1]; [8],significantly reduced
same,increased antibody production upon PPARγ ligand treatment,"[1]; addition of SC-58125 10 μM, CpG, 6 days",significantly reduced
"CpG: CpG oligodeoxynucleotides 2395 5′-TCGTCGTTTTCGGCGCGCGCCG-3′ (SEQ ID NO: 1), a TLR-9 ligand, mitogen (chemistry not given here)",PPARγ protein levels increase compared to untreated B cells (densitometry of Western blot),[6],≤ 14.3 fold
same,intracellular PPARγ levels compared to untreated B cells,[7],increased
same,IgG production,"[1]; CpG 1 μg/ml alone, 5 days",significantly induced
same,IgM production,"[1]; CpG 1 μg/ml alone, 5 days",significantly induced
same,PPARγ activity (PPRE reporter),PPARγ; CpG-activated B cells with no exogenous PPARγ ligand,did not induce PPARγ activity
same,percentage of CD38-expressing naive B cells (CD38highCD27low),"peripheral blood B cells [2]; CpG 1 μg/ml, 5 days",9.1±0.6%
same,percentage of CD38highCD27high B cells (plasma cells),"peripheral blood B cells [2]; CpG 1 μg/ml, 5 days",7.0±1.7%
same,percentage of B cells which express Cox-2,[3],27%
same,levels of Cox-2 expression (mean fluorescence intensity),[3]; FIG. 6B,increased the levels of Cox-2 expression
same,BLIMP-1 protein levels compared to untreated or freshly isolated B cells,[4]; CpG treatment,significantly upregulated
